Laboratory results taken from US5744485A, “Carbamates and ureas as modifiers of multi-drug resistance” (Vertex Pharmaceuticals Incorporated, priority 1995, dated 1998).

Tests used:
[1] = system: L1210 mouse leukemia cells transformed with the pHaMDR1/A retrovirus carrying a MDR1 cDNA (L1210VMDRC.06); assay: MDR sensitization assay: reversal of MDR to doxorubicin in L1210VMDRC.06 cells (MTT or XTT viability, 3 days) (Table 1); settings: for MDR Ratio (2.5 μM) / MDR Ratio 1.0 μM Cpd.: mouse, l1210vmdrc.06 cells, 72 h
Description: To assay the ability of the compounds according to this invention to increase the antiproliferative activity of a drug, cell lines which are known to be resistant to a particular drug may be used. These cell lines include, but are not limited to, the L1210, P388D, CHO and MCF7 cell lines. Alternatively, resistant cell lines may be developed. The cell line is exposed to the drug to which it is resistant, or to the test compound; cell viability is then measured and compared to the viability of cells which are exposed to the drug in the presence of the test compound.
We have carried out assays using L1210 mouse leukemia cells transformed with the pHaMDR1/A retrovirus carrying a MDR1 cDNA, as described by Pastan et al., Proc. Natl. Acad. Sci., Vol. 85, 4486-4490 (1988). The resistant line, labelled L1210VMDRC.06, was obtained from Dr. M. M. Gottesman of the National Cancer Institute.
Multi-drug resistance assays were conducted by plating cells (2×10^3, 1×10^4, or 5×10^4 cells/well) in 96 well microtiter plates and exposing them to a concentration range of doxorubicin (50 nM-10 μM) in the presence or absence of multi-drug resistance modifier compounds ("MDR inhibitors") of this invention (1, 2.5 or 10 μM) as described in Ford et al., Cancer Res., Vol. 50, 1748-1756. (1990). After culture for 3 days, the viability of cells was quantitated using MTT (Mossman) or XTT dyes to assess mitochondrial function. All determinations were made in replicates of 4 or 8. Also see, Mossman T., J. Immunol. Methods, Vol. 65, 55-63 (1983).
Results were determined by comparison of the IC50 for doxorubicin alone to the IC50 for doxorubicin+MDR inhibitor. An MDR ratio was calculated (IC50 Dox/IC50 Dox+Inhibitor) and the integer value used for comparison of compound potencies.

HL60/ADR cells = assay: Inhibition of MRP-mediated MDR: reversal of MDR to doxorubicin in HL60/ADR cells (XTT viability, 3 days) (Table 2); assay type: cell-based; settings: Homo sapiens, 72 h, read-out: IC50 Dox alone
Description: We plated HL60/ADR cells in 96 well microtiter plates (4×10^4 cells/well). The cells were then exposed to various concentrations of doxorubicin (50 nM to 10 μM) in the presence or absence of various compounds of this invention at various concentrations (0.5-10 μM). After culturing the cells for 3 days, their viability was quantitated using the XTT dye method to assess mitochondrial function. Results were expressed as a ratio of the IC50 for doxorubicin alone to the IC50 for doxorubicin plus MDR inhibitor. IC50 values are expressed in nM. In all assays the intrinsic antiproliferative or cytotoxicity activity of the MDR inhibitors was also determined for HL60/ADR cells.

O=C(OC(COCc1ccccc1)COCc1ccccc1)[C@@H]1CCCCN1C(=O)Oc1cccc2ncccc12 [Compound 18, (S)-Piperidine-1,2-dicarboxylic acid 2-(2-benzyloxy-1-(benzyloxymethyl)-ethyl)ester 1-quinolin-5-yl ester]
MDR Ratio (2.5 μM) [1]: 13.6

COc1cc(N(C)C(=O)N2CCCC[C@H]2C(=O)OC(CCc2ccccc2)CCc2ccccc2)cc(OC)c1OC [Compound 13, (S)-1-((3,4,5-Trimethoxyphenyl)-methyl-carbamoyl)-piperidine-2-carboxylic acid 1-(2-phenyl-ethyl)-3-phenyl-propyl ester]
MDR Ratio 1.0 μM Cpd. [1]: 3.0
MDR Ratio (2.5 μM) [1]: 11.5

O=C(OC(CCCc1cccnc1)CCCc1cccnc1)[C@@H]1CCCCN1C(=O)N1CCCCC1 [Compound 9, (S)-1-(Piperidine-1-carbonyl)-piperidine-2-carboxylic acid 4-pyridin-3-yl-1-(3-pyridin-3-yl-propyl)-butyl ester]
MDR Ratio 1.0 μM Cpd. [1]: 1.3
MDR Ratio (2.5 μM) [1]: 6.9

CN(C(=O)N1CCCC[C@H]1C(=O)OC(CCCc1cccnc1)CCCc1cccnc1)c1cccc(C(F)(F)F)c1 [Compound 6, (S)-1-((3-Trifluoromethylphenyl)-methyl-carbamoyl)-piperidine-2-carboxylic acid 4-pyridin-3-yl-1-(3-pyridin-3-yl-propyl)-butyl ester]
MDR Ratio (2.5 μM) [1]: 14.6

CN(C(=O)N1CCCC[C@H]1C(=O)OC(COCc1ccccc1)COCc1ccccc1)c1ccc(N2CCCCC2)cc1 [Compound 17, (S)-1-(Methyl-(4-piperidin-1-yl-phenyl)-carbamoyl)-piperidine-2-carboxylic acid 2-benzyloxy-1-(benzyloxy-methyl)-ethyl ester]
MDR Ratio (2.5 μM) [1]: 10.7

COc1cc(OC(=O)N2CCCC[C@H]2C(=O)OC(CCCc2cccnc2)CCCc2cccnc2)cc(OC)c1OC [Compound 11, (S)-Piperidine-1,2-dicarboxylic acid 1-(3,4,5-trimethoxyphenyl) ester 2-(4-pyridin-3-yl-1-(3-pyridin-3-yl-propyl)-butyl) ester]
MDR Ratio 1.0 μM Cpd. [1]: 1.2
MDR Ratio (2.5 μM) [1]: 2.3

COc1cccc2c1C(=O)c1c(O)c3c(c(O)c1C2=O)C[C@@](O)(C(=O)CO)C[C@@H]3O[C@H]1C[C@H](N)[C@H](O)[C@H](C)O1 [Dox, doxorubicin, reference compound]
IC50 (HL60/ADR cells): 5 µM

CC(C)c1ccc(N(C)C(=O)N2CCCC[C@H]2C(=O)OC(CCCc2cccnc2)CCCc2cccnc2)cc1 [Compound 8, (S)-1-((4-Isopropylphenyl)-methyl-carbamoyl)-piperidine-2-carboxylic acid 4-pyridin-3-yl-1-(3-pyridin-3-yl-propyl)-butyl ester]
MDR Ratio 1.0 μM Cpd. [1]: 1.9
MDR Ratio (2.5 μM) [1]: 3.6

CN(C(=O)N1CCCCC1C(=O)OC(CCc1ccccc1)CCc1ccccc1)c1ccc(S(=O)(=O)O)cc1 (stereo not drawn) [Compound 14, 4-(Methyl-(2-(1-phenethyl-3-phenyl-propoxycarbonyl)-piperidine-1-carbonyl)-amino)-benzenesulfonic acid]
MDR Ratio 1.0 μM Cpd. [1]: 1.9
MDR Ratio (2.5 μM) [1]: 3.6

CN(C(=O)N1CCCC[C@H]1C(=O)OC(CCCc1cccnc1)CCCc1cccnc1)c1ccc(C(C)(C)C)cc1 [Compound 7, (S)-1-((4-Tert-butylphenyl)-methyl-carbamoyl)-piperidine-2-carboxylic acid 4-pyridin-3-yl-1-(3-pyridin-3-yl-propyl)-butyl ester]
MDR Ratio 1.0 μM Cpd. [1]: 4.0
MDR Ratio (2.5 μM) [1]: 15.4

COc1cc(N(C)C(=O)N2CCCC[C@H]2C(=O)OC(CCCc2cccnc2)CCCc2cccnc2)cc(OC)c1OC [Compound 5, (S)-1-((3,4,5-Trimethoxyphenyl)-methyl-carbamoyl)-piperidine-2-carboxylic acid 4-pyridin-3-yl-1-(3-pyridin-3-yl-propyl)-butyl ester]
MDR Ratio 1.0 μM Cpd. [1]: 2.8
MDR Ratio (2.5 μM) [1]: 7.8

CN(C(=O)N1CCCC[C@H]1C(=O)OC(COCc1ccccc1)COCc1ccccc1)c1ccc(N2CCOCC2)cc1 [Compound 16, (S)-1-(Methyl-(4-morpholin-1-yl-phenyl)-carbamoyl)-piperidine-2-carboxylic acid 2-benzyloxy-1-(benzyloxy-methyl)-ethyl ester]
MDR Ratio (2.5 μM) [1]: 10.7

(S)-1-((3,4,5-Trimethoxyphenyl)-methyl-carbamoyl)-piperidine-2-carboxylic acid 4-pyridin-1-yl-1-(3-pyridin-1-yl-propyl)-butyl ester [Compound 10]
IC50 Dox + 1 μM Cpd. ([1]; IC50 of doxorubicin in presence of 1 μM compound, L1210VMDRC.06 cells, 3 days): 400
IC50 Dox + 2.5 μM Cpd. ([1]; IC50 of doxorubicin in presence of 2.5 μM compound, L1210VMDRC.06 cells, 3 days): 85
